Results from patent US20210393585A1, “METHOD FOR PREVENTING AND/OR TREATING A STRESS-INDUCED DISEASE” (TZU CHI UNIVERSITY, priority 2020, published 2021).

Assays:
Format in all cases: in vivo
B57BL/6J mice [1] = assay: Restraint stress-mediated immunosuppression in anti-platelet (CD41) Ig induced immune thrombocytopenia (ITP) model, platelet counts; conditions: for rescue of restraint stress-mediated immunosuppression (ITP model): restraint (psychological) stress, FIG. 7
Experimental: Experiment outlines (A). The effects of tanshinone IIA treatments on the restraint stress-mediated amelioration of immune thrombocytopenia (ITP) (B) were analyzed. The data are representative of three independent experiments with two mice per group (n=6). ** P<0.01 compared with the respective vehicle groups in the tanshinone IIA vs. vehicle treatments (B).
The effects of tanshinone I (A), crytotanshinone (B), tanshinone IIA sodium sulfate (C) treatments on the restraint stress-mediated amelioration of immune thrombocytopenia (ITP) were analyzed. The data are representative of three independent experiments with two mice per group (n=6). * P<0.05, ** P<0.01 compared with the respective vehicle without stress (0 h) groups, #P<0.05, ##P<0.01 compared with the respective tanshinone IIA, without stress groups in the ITP experiments.
(§1) Autoimmune thrombocytopenia (ITP) mouse model, through intravascular injections of anti-platelet (CD41) Ig following previously reported methods (Huang et al., Blood 2010; 116:5002-9), was employed to investigate the immunosuppressive property of cold exposure and restraint stress, and immune enhancing properties of tanshinone IIA and its derivatives. The B57BL/6J mice were intravenously injected with 0.1 mg/kg (body weight) of an antiplatelet monoclonal antibody (rat antimouse integrin αIIb/CD41 Ig, clone MWReg30, BD PharMingen) to induce ITP. Mice with or without injections of anti-CD41 Ig were subjected to cold exposure and restraint stress. To address the immune enhancing properties of tanshinone IIA, these mice were further treated with or without tanshinone I, tanshinone IIA, tanshinone IIA sodium sulfate, crytotanshinone (10-2 to 10 mg/kg) treatments. To determine the mouse platelet counts, whole blood samples (100-120 μL) of the mice were collected from the retro-orbital venous plexus and mixed with an anticoagulant, a citrate dextrose solution (38 mM citric acid, 75 mM sodium citrate, and 100 mM dextrose), in Eppendorf tubes. Subsequently, platelet counts were measured using a hematology analyzer (KX-21N, Sysmex) at various time intervals as previously described (Chan et al., Oncotarget 2018; 9:12781-95; Huang et al., Blood 2010; 116:5002-9).

B57BL/6J mice [2] = assay: Cold stress-mediated immunosuppression in anti-platelet (CD41) Ig induced immune thrombocytopenia (ITP) model, platelet counts; conditions: for rescue of cold stress-mediated immunosuppression (ITP model): FIG. 8
Experimental: (§2) Experiment outlines (A and C). The effects of tanshinone IIA treatments on the cold-mediated amelioration of immune thrombocytopenia (ITP) (B) and cold-suppressed bacterial clearance (D) were analyzed. The data are representative of three independent experiments with two mice per group (n=6). ** P<0.01 compared with the respective vehicle (25° C.) groups, ##P<0.01 compared with the respective tanshinone IIA 25° C. groups (B and D).
The effects of tanshinone I (A), crytotanshinone (B), tanshinone IIA sodium sulfate (C) treatments on the cold-mediated amelioration of immune thrombocytopenia (ITP) were analyzed. The data are representative of three independent experiments with two mice per group (n=6). ** P<0.01 compared with the respective vehicle (25° C.) groups, ##P<0.01 compared with the respective tanshinone IIA 25° C. groups.
as §1

cortisol = assay: Cold stress-induced plasma cortisol (ELISA); conditions: mice, FIG. 5
Experimental: The time course on the effects of tanshinone IIA treatments on the cold-mediated amelioration of immune thrombocytopenia (ITP) (A) and cold-induced elevation of cortisol (B) was analyzed. The data are representative of three independent experiments with two mice per group (n=6). ** P<0.01 compared with the respective vehicle (25° C.)/vehicle (0 h) groups.
Blood samples were collected from experimental mice under cold stress or restraint stress for 7 h. The plasma levels of cortisol were measured using an ELISA kit (Cayman Chemical, Ann Arbor, Mich., USA) as previously described (Chan et al., Oncotarget 2018; 9:12781-95).

E. coli, BL21 = assay: Cold-suppressed bacterial clearance (surviving bacteria in spleen); conditions: mice challenged i.v. with E. coli, compared to vehicle control (without immunosuppression) groups, FIG. 4D
Experimental: as §2
The bacterium E. coli was cultured using standard methods. To analyze the immunosuppressive effects of cold exposure and restraint stress on bacterial clearance, following our previously developed methods (Chan et al., Oncotarget 2018; 9:12781-95), the experimental mice were challenged by intravenously administering bacteria (E. coli, BL21, 6×10^9 CFU/kg; no mortality within 24 h at 4° C.); a 40-h circulating equilibrium at a 25° C. environment was required before cold exposure (control groups: 25° C. exposure) and restraint stress. One day after treatment with cold exposure or restraint stress, the spleens of the euthanized mice were collected and weighed. After homogenization (homogenizer, BioSpec Products, Racine, Wis., USA) in PBS, surviving bacteria (colony forming units [CFUs]) in the spleen tissues were quantified using the standard plating method. […]

B57BL/6J mice [3] = assay: Cold stress-induced gastrointestinal leakage (circulating Evans blue); conditions: stressed, 9 h groups with vs without TSNIIA, #P<0.05, FIG. 3
Experimental: Experiment outlines (A). The effects of tanshinone IIA treatments on the amelioration of cold exposure-induced gastrointestinal leakage (B) were analyzed. The data are representative of three independent experiments with two mice per group (n=6). ** P<0.01 compared with the respective 5 h, no stress groups, #P<0.05 compared with the respective stress groups of each time course (B). EB: Evans blue.
(§3) The results of the exemplary rescue of restraint stress-induced gastrointestinal leakage by tanshinone IIA (TSNIIA) treatments are shown in FIG. 1. Evans blue, a gastrointestinal non-absorbable dye, is able to bind circulating albumin to form dye-protein complexes, which cannot normally penetrate the endothelial cell layers of the vascular system, unless the tissue has been damaged (Yao et al., Contrast Media Mol Imaging 2018; 2018:7628037). Accordingly, circulating Evens blue levels are approximately and proportionally correlated to the levels of gastrointestinal injury.

B57BL/6J mice [4] = assay: Restraint stress-induced gastrointestinal leakage (circulating Evans blue); conditions: stressed, 9 h groups with vs without TSNIIA, #P<0.05, FIG. 1
Experimental: Experiment outlines (A). The effects of tanshinone IIA treatments on the amelioration of restraint stress induced gastrointestinal leakage (B) were analyzed. The data are representative of three independent experiments with two mice per group (n=6). * P<0.05 compared with the respective 5 h, no stress groups, #P<0.05 compared with the respective stress groups of each time course (B). EB: Evans blue.
as §3

Compound | rescue of restraint stress-mediated immunosuppression (ITP model) (B57BL/6J mice [1]) | rescue of cold stress-mediated immunosuppression (ITP model) (B57BL/6J mice [2]) | cold stress-induced levels of circulating cortisol (cortisol) | platelet counts after restraint stress in anti-platelet (CD41) Ig induced thrombocytopenia (B57BL/6J mice [1]; restraint stress, compared to vehicle control (without immunosuppression) groups, FIG. 2) | platelet counts after cold stress in anti-platelet (CD41) Ig induced thrombocytopenia (B57BL/6J mice [2]; compared to vehicle control (without immunosuppression) groups, FIG. 4B) | bacterial clearance rate after cold stress (E. coli, BL21) | cold stress-induced gastrointestinal injury (circulating Evans blue levels) (B57BL/6J mice [3]) | restraint stress-induced gastrointestinal injury (circulating Evans blue levels) (B57BL/6J mice [4])
C[C@H]1COC2=C1C(=O)C(=O)c1c2ccc2c1CCCC2(C)C [crytotanshinone] | exert similar immune enhancing properties under psychological stress | exert similar immune enhancing properties under cold stress |  |  |  |  |  | 
Cc1coc2c1C(=O)C(=O)c1c-2ccc2c1CCCC2(C)C [tanshinone IIA] | exert similar immune enhancing properties under psychological stress | exert similar immune enhancing properties under cold stress | counteract the cold stress-induced levels of circulating anti-inflammatory steroid hormone cortisol | remain low and do not show statistical significance as compared to the vehicle control | remain low and do not show statistical significance as compared to the vehicle control | the bacterial clearance rate is high | able to ameliorate cold stress-induced gastrointestinal injury | able to ameliorate stress-induced gastrointestinal injury
tanshinone IIA sodium sulfate | exert similar immune enhancing properties under psychological stress | exert similar immune enhancing properties under cold stress |  |  |  |  |  | 
Cc1coc2c1C(=O)C(=O)c1c-2ccc2c(C)cccc12 [tanshinone I] | exert similar immune enhancing properties under psychological stress | exert similar immune enhancing properties under cold stress |  |  |  |  |  | 
